US7951798B2, “Polymorphs of olanzapine hydrochloride” (Egis Hyogyszergyar Nyrt., priority 2003, dated 2011)

Test: solubility in water (analytical studies)
Assay type: physicochemical
Conditions: compared with the new polymorphic hydrochloride salts

Cc1cc2c(s1)Nc1ccccc1N=C2N1CCN(C)CC1 [olanzapine base, 2-methyl-4-(4-methylpiperazin-1-yl)-10H-thieno-[2,3-b][1,5]-benzodiazepine]
solubility in water: significantly lower
